Data from BindingDB's records for doi:10.1021/acs.jmedchem.8b00875 (2019).

Experiments:
[1] = molecular target: T1, Muscarinic acetylcholine receptor M1 (Homo sapiens, UniProt P11229); test: Positive allosteric modulation of M1 AchR (unknown origin)
T1 sequence (P11229 whole entry): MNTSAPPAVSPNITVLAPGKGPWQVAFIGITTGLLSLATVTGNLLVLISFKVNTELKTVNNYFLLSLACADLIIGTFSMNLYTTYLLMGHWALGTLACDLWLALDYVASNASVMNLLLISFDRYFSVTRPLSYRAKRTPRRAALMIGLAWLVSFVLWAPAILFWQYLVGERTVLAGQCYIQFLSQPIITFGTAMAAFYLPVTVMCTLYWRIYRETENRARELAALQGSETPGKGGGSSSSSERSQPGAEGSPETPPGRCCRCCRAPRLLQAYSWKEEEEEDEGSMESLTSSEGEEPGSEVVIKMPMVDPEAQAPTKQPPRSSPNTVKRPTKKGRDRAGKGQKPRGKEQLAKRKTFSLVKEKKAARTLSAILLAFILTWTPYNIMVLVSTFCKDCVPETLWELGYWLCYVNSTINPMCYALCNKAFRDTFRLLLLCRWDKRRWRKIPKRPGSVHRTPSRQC

[2] = molecular target: T2, 5-hydroxytryptamine receptor 2C (Homo sapiens, UniProt P28335); test: Positive allosteric modulation of 5-HT2C receptor (unknown origin) assessed as increase in 5-HT-induced displacement of [3H]mesulergine by measuring 5-HT Ki at 20 uM (Rvb = 159 nM)
T2 sequence (P28335 whole entry): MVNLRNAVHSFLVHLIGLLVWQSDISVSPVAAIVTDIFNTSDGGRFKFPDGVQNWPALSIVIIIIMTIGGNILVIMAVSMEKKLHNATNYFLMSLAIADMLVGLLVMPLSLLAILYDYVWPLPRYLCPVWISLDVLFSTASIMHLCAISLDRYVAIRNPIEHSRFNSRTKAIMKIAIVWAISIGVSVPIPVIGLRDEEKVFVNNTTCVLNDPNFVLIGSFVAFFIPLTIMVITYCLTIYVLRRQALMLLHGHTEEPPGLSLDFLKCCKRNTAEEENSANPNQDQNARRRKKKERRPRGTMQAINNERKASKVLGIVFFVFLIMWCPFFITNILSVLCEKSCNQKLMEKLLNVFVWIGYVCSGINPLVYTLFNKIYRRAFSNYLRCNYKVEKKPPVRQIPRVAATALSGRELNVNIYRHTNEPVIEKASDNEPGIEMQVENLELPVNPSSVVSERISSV

Row | Ki [2] [nM] | SMILES | EC50 [1] [nM]
1 |  | Cn1cc(-c2ccc(Cn3cc(C(=O)N[C@H]4CCCC[C@@H]4O)c4c(F)cc(F)cc43)cn2)cn1 | 210
2 | 6.4 | CCCCCCCCCCC[C@@H]1CCN[C@H](C(=O)N[C@@H]([C@H]2O[C@H](SC)[C@H](O)[C@@H](O)[C@H]2O)[C@H](C)Cl)C1 | 
